Results taken from PubChem BioAssay (NCI).
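All cell lines were grown in 96-well plates and treated with compound for 48 hours. At the TGI there is no net growth.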

Columns and labels:
Assay in all cases: growth of human tumour cells (NCI), 48 h
RXF 393 renal = tested on: RXF 393 renal
TK-10 renal = tested on: TK-10 renal
CCRF-CEM leukemia = tested on: CCRF-CEM leukemia
RPMI-8226 leukemia = tested on: RPMI-8226 leukemia
EKVX NSCLC = tested on: EKVX NSCLC
COLO 205 colon = tested on: COLO 205 colon
DMS 114 small cell lung = tested on: DMS 114 small cell lung
DMS 273 small cell lung = tested on: DMS 273 small cell lung
SNB-19 CNS = tested on: SNB-19 CNS
NCI-H226 lung = tested on: NCI-H226 lung
HL-60(TB) leukemia = tested on: HL-60(TB) leukemia
SN12C renal = tested on: SN12C renal
OVCAR-3 ovarian = tested on: OVCAR-3 ovarian
SK-MEL-5 melanoma = tested on: SK-MEL-5 melanoma
U251 CNS = tested on: U251 CNS
OVCAR-8 ovarian = tested on: OVCAR-8 ovarian
KM20L2 colon = tested on: KM20L2 colon
IGROV1 ovarian = tested on: IGROV1 ovarian
NCI-H23 lung = tested on: NCI-H23 lung
SR leukemia = tested on: SR leukemia

Measured: TGI

COc1ccc(C[C@H](N)C(=O)N2C[C@H](CO)C[C@H](n3cnc4c(N(C)C)ncnc43)C2)cc1
> 100 µM: all assays above

COc1ccc(C[C@H](N)C(=O)N2C[C@H](CO)C[C@H](n3ccc(=O)[nH]c3=O)C2)cc1
> 100 µM: all assays above
